Tests used:
[1] = molecular target: T1, human-derived GPR40 (Homo sapiens, UniProt O14842); experiment: Reactivity of fatty acid to human-derived GPR40, intracellular calcium by FLIPR in transfected CHO-K1 cells; format: cell-based; settings: for activity in intracellular calcium ion mobilization assay using CHO cell expressing GPR40 (GPR40 agonistic activity): as stated in Experimental Example 6
T1 construct: expressed in transfected cells; host or cells: CHO-K1, transient transfection with lipofectamine
T1 sequence (O14842 whole entry): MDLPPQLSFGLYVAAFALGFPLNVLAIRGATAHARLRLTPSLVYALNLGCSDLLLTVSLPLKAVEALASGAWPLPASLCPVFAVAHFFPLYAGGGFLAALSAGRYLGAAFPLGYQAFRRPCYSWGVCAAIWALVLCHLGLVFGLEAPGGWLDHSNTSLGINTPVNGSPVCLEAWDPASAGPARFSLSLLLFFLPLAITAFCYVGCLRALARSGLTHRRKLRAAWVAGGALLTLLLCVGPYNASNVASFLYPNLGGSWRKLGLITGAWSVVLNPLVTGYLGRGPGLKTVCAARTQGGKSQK
Experimental: Unless specifically indicated, CHO-K1 cell line was cultured using Ham's F-12 medium (Invitrogen) containing 10% fetal calf serum (Invitrogen). The day before transfection, 4.5×10^5 per 10 cm^2 of cells were seeded, and incubated at 37° C. for not less than 15 hrs in a CO2 incubator adjusted to 5% CO2 concentration. The transfection was performed using a lipofectamine reagent (Invitrogen) and according to the reagent attached method. When a 6-well plate was used for a culture plate, transfection was performed in the following manner. First two 1.5 ml volume tubes were prepared, and 100 μl of Opti-MEM-I medium (Invitrogen) was dispensed. Then, […] of an expression vector was added to one tube and 6 μl of a lipofectamine reagent was added to the other tube. They were mixed and stood still at room temperature for 20 min. A mixed solution for transfection containing this solution and Opti-MEM-I medium (800 μl) was added to CHO-K1 cell previously washed with Opti-MEM-I medium, and incubated in a CO2 incubator for 6 hrs. The incubated cells were rinsed with PBS (Invitrogen), detached with 0.05% trypsin-EDTA solution (Invitrogen), recovered by centrifugation. The obtained cells were counted, diluted such that 5×10^4 cells were contained per 200 μl of the medium, dispensed to black walled 96-well plate (Costar) at 200 μl per well, incubated overnight in a CO2 incubator. Various test samples were added to CHO-K1 cells transiently expressing the receptor by the above-mentioned transfection step, and changes in the intracellular calcium concentration then was measured using FLIPR (Molecular Device). For measurement of changes in intracellular calcium concentration by FLIPR, the following pretreatment was applied. First, an assay buffer for adding fluorescence dye Fluo-3AM (DOJIN) to the cell, or washing the cell immediately before FLIPR assay was prepared. To a solution (hereinafter HBSS/HEPES solution) obtained by adding 20 ml of 1M HEPES (pH 7.4) (DOJIN) to 1000 ml of HBSS (Invitrogen) was added a solution (10 ml) obtained by dissolving probenecid (710 mg, Sigma) in 1N NaOH (5 ml) and adding and mixing with HBSS/HEPES solution (5 ml) and the obtained solution was used as an assay buffer. Then, Fluo-3AM (50 μg) was dissolved in 21 μl of DMSO (DOJIN), and an equal amount of 20% pluronic acid (Molecular Probes) was added. The mixture was added to an assay buffer (10.6 ml) supplemented with 105 μl of fetal calf serum to give a fluorescence dye solution. The medium of the CHO-KL cell after transfection treatment was removed, a fluorescence dye solution was immediately dispensed at 100 μl per well and incubated in a CO2 incubator for 1 hr to incorporate the fluorescence dye into the cell. The incubated cells were washed with the above-mentioned assay buffer and set on FLIPR. The test sample to be added to receptor expressing CHO-KL cell was prepared using the assay buffer and simultaneously set on FLIPR. After the above-mentioned pretreatment, changes in the intracellular calcium concentration after addition of various test samples were measured by FLIPR.

[2] = tested on: mouse insulinoma MIN6 cell; experiment: Insulin secretagogue effect of free fatty acid in mouse insulinoma MIN6 cell (RIA); format: cell-based; settings: 300 μM-1000 μM free fatty acid-BSA (4:1), 11 mM glucose, 90 min (or 60 min)
Experimental: Unless otherwise specified, MIN6 cell was incubated in DMEM (high glucose, Invitrogen) containing 15% FCS (Trace Scientific Ltd.), 55 μM 2-mercaptoethanol, 100 U/ml penicillin, and 100 μg/ml streptomycin. Min6 cells were seeded in a 96 well plate at 10^5 cells per well, and incubated at 37° C. for 3 days in a CO2 incubator adjusted to 5% CO2 concentration. The medium was exchanged to RPMI1640 (glucose-free, Invitrogen) containing 10% FCS (Trace Scientific Ltd.), 5.5 mM glucose, 100 U/ml penicillin and 100 μg/ml streptomycin and the cells were further incubated for 24 hrs. The medium was aspirated, free fatty acid-bovine serum albumin (BSA) mixed solution (4:1, molar ratio) diluted with RPMI1640 (glucose-free, Invitrogen) containing 10% FCS (Trace Scientific Ltd.), 11 mM glucose, 100 U/ml penicillin, and 100 μg/ml streptomycin was added to the cells and reacted at 37° C. for 90 min. (or 60 min.) in a CO2 incubator adjusted to 5% CO2 concentration. The 96 well plate after reaction was centrifuged at 1500 rpm for 5 min. and the culture supernatant was recovered. The insulin amount secreted in this culture supernatant liquid was determined by radioimmunoassay (RIA) using a rat insulin RIA system (Amersham Pharmacia Biotech).

[3] = tested on: mouse pancreatic β cell line MIN6; experiment: Promotion of insulin secretion from MIN6 (insulin immunoassay); format: cell-based; settings: MIN6, KRBH with 22 mM glucose, 90 min
Experimental: (§1) Mouse pancreatic β cell line MIN6 cultured in a flask was detached with PBS containing 2.5 mM EDTA, and seeded and incubated in a 96 well plate for 2 days. The medium used was obtained by adding 15% fetal bovine serum (ThermoTrace), […] 2-mercaptoethanol (Invitrogen), 20 mM HEPES pH 7.3, 100 U/ml penicillin and 100 μg/ml streptomycin to Dulbecco's Modified Eagle Medium (DMEM, Invitrogen) containing 4.5 g/l of glucose. The cells were washed twice with modified Krebs-Ringer bicarbonate buffer (KRBH, 116 mM NaCl, 4.7 mM KCl, 1.2 mM KH2PO4, 1.2 mM MgSO4, 2.5 mM CaCl2, 25 mM NaHCO3, 24 mM HEPES pH 7.3) and preincubated at 37° C. under 5% CO2 conditions for 30 min. Fatty acid diluted and prepared with a buffer obtained by adding 22 mM glucose to the above-mentioned KRBH was added to the cell after preincubation and the cells were incubated at 37° C. under 5% CO2 conditions for 90 min. After incubation, the cell supernatant was recovered and cryopreserved. The insulin content of the supernatant was measured using a commercially available insulin immunoassay kit (Amersham Pharmacia Biotech).
as §1, with “(KBH,” for “(KRBH,”, “The compound” for “Fatty acid”

[4] = tested on: siRNA-introduced MIN6 cell; experiment: Insulin secretion enhancing activity of fatty acid in siRNA-introduced MIN6; format: cell-based, mouse
Experimental: (§2) The expression amount of mouse GPR40-GFP was detected by the following enzyme immunoassay. The culture supernatant was discarded, washed with HBSS (Invitrogen), fixed with 0.01% glutaraldehyde (Wako Pure Chemical Industries, Ltd.) for 5 min., and blocked with PBS (TAKARA SHUZO) containing 2% BSA. 500-fold diluted anti-GFP monoclonal antibody 3E6 (NIPPON GENE CO., LTD.) was added and the cells were incubated at room temperature for 2 hrs., washed and 500-fold diluted HRP-labeled anti-mouse IgG antibody (ICN) was added, and the cells were incubated at room temperature for 2 hrs. After washing, TMB microwell peroxydase substrate (Funakoshi) was added and, after incubation for 30 min., sulfuric acid was added to stop the color developing reaction, and the absorbance at 450 nm was measured.
as §1
Insulin secretion enhancing activity in MIN6 cell, into which m40i103 was introduced using HVJ Envelope VECTOR KIT GenomONE based on the method of Experimental Example 5, was examined. The insulin secretion enhancing activity by fatty acid was examined by the method of Experimental Example 6.

[5] = tested on: mouse GPR40-GFP fused protein; experiment: Suppression of expression of mouse GPR40-GFP fused protein by siRNA in CHO cells (enzyme immunoassay); format: cell-based; settings: siRNA 2.86 Pmol/0.5 μl or 8.57 Pmol/1.5 μl introduced into mouse GPR40-GFP expressing CHO cell; absorbance at 450 nm
Experimental: as §2, with “CHO cell expressing fused protein of mouse GPR40 and GFP prepared by a method known per se was seeded in a 96 well plate at 3×10^4/well and incubated for one day. siRNA of various sequences (Dharmacon) (concentration of 2.86 Pmol/0.5 μl or 8.57 Pmol/1.5 μl) prepared using HVJ Envelope VECTOR KIT GenomONE™ ([…] SANGYO) and according to the report of Elbasir et al. (Nature 411 (6836), 494-498 (2001)) was introduced into the cells and the cells were further incubated for one day. The expression” for “The expression”

| Compound | activity in intracellular calcium ion mobilization assay using CHO cell expressing GPR40 (GPR40 agonistic activity) [1] | insulin secretion by MIN6 cell [2] | insulin secretion enhancing activity [3] | mouse GPR40-GFP expression amount [5] | further results |
| --- | --- | --- | --- | --- | --- |
| CCCCCCCC/C=C\CCCCCCCC(=O)O [oleic acid] | remarkable activity | promoted | significant insulin secretion enhancing activity |  | response (increase in intracellular calcium concentration) of CHO-K1 cell expressing the GPR40 receptor ([1]; added at 10^−5M-10^−6M, FLIPR, control-vector cells showed no response): specifically responds |
| CCCCCCCCCCCCCCCC(=O)O [palmitic acid] |  | promoted |  |  |  |
| CCCCC/C=C\C/C=C\C/C=C\CCCCC(=O)O [γ-linolenic acid] | remarkable activity | promoted | significant insulin secretion enhancing activity |  | insulin secretion enhancing activity of fatty acid ([4]; MIN6 into which GPR40 specific siRNA m40i103 was introduced): no longer showed insulin secretion enhancing activity; insulin secretion enhancing activity of fatty acid ([4]; MIN6 into which random sequence Scramble II duplex siRNA was introduced): retention of the insulin secretion enhancing activity |
| m40i103: "a mouse GPR40 specific siRNA (sense strand is SEQ ID NO: 23, antisense strand is SEQ ID NO: 24)" (sense CGCCAGUUGUGACAUUCUUTT; antisense TTGCGGUCAACACUGUAAGAA; chemistry not given here; one strand is listed 3' to 5') |  |  |  | lower GPR40-GFP expression amount | effect of siRNA introduction on insulin secretion enhancing activity by linoleic acid and γ-linolenic acid ([4]; siRNA introduced into MIN6 with HVJ Envelope VECTOR KIT GenomONE): no longer showed insulin secretion enhancing activity |
| m40i256: mouse GPR40 specific siRNA "(sense strand is SEQ ID NO: 25, antisense strand is SEQ ID NO: 26)" (sense CUUGUUAGCCAUCCGAGGCTT; antisense TTGAACAATCGGTAGGCTCCG; chemistry not given here; one strand is listed 3' to 5') |  |  |  | lower GPR40-GFP expression amount |  |

— patent US7960369B2, “Receptor function regulator” (Takeda Pharmaceutical Company Limited, priority 2002, dated 2011)
